From publication PMC4501720 (PLoS ONE, 2015)

System: whole blood cells of group 3 pigs vaccinated with BCG-pAg85A
Assay type: cell-based, pigs (Sus scrofa domestica)

Substance | IFN-γ levels, BCG / pAg85A animal number 1 | IFN-γ levels, BCG / pAg85A animal number 2 | IFN-γ levels, BCG / pAg85A animal number 3 | IFN-γ levels, BCG / pAg85A animal number 4 | IFN-γ levels, BCG / pAg85A animal number 5 | IFN-γ levels, BCG / pAg85A animal number 6
1–20: synthetic overlapping peptide of mature Ag85A, aa 1–20 (FSRPGLPVEYLQVPSPSMGR; UniProt P9WQP3 44-63, looked up, fragment) | <5 pg/mL | 305 pg/mL | <5 pg/mL | <5 pg/mL | 84 pg/mL | 13,875 pg/mL
11–30: synthetic overlapping peptide of mature Ag85A, aa 11–30 (LQVPSPSMGRDIKVQFQSGG; UniProt P9WQP3 54-73, looked up, fragment) | <5 pg/mL | 1,115 pg/mL | <5 pg/mL | <5 pg/mL | 80 pg/mL | <5 pg/mL
21–40: synthetic overlapping peptide of mature Ag85A, aa 21–40 (DIKVQFQSGGANSPALYLLD; UniProt P9WQP3 64-83, looked up, fragment) | <5 pg/mL | 681 pg/mL | <5 pg/mL | 128 pg/mL | 142 pg/mL | <5 pg/mL
35–53: synthetic overlapping peptide of mature Ag85A, aa 35–53 (ALYLLDGLRAQDDFSGWDI; UniProt P9WQP3 78-96, looked up, fragment) | 4,594 pg/mL | 438 pg/mL | 74 pg/mL | <5 pg/mL | 2,105 pg/mL | <5 pg/mL
51–70: synthetic overlapping peptide of mature Ag85A, aa 51–70 (WDINTPAFEWYDQSGLSVVM; UniProt P9WQP3 94-113, looked up, fragment) | 5,083 pg/mL | <5 pg/mL | <5 pg/mL | <5 pg/mL | 3,125 pg/mL | <5 pg/mL
61–80: synthetic overlapping peptide of mature Ag85A, aa 61–80 (YDQSGLSVVMPVGGQSSFYS; UniProt P9WQP3 104-123, looked up, fragment) | 8,179 pg/mL | 354 pg/mL | 579 pg/mL | 75 pg/mL | 3,611 pg/mL | 444 pg/mL
71–90: synthetic overlapping peptide of mature Ag85A, aa 71–90 (PVGGQSSFYSDWYQPACGKA; UniProt P9WQP3 114-133, looked up, fragment) | 217 pg/mL | <5 pg/mL | <5 pg/mL | <5 pg/mL | 289 pg/mL | <5 pg/mL
81–100: synthetic overlapping peptide of mature Ag85A, aa 81–100 (DWYQPACGKAGCQTYKWETF; UniProt P9WQP3 124-143, looked up, fragment) | 1,900 pg/mL | 56 pg/mL | 2,968 pg/mL | 170 pg/mL | 1,547 pg/mL | <5 pg/mL
91–108: 18-mer peptide spanning the sequence of Ag85B aa 91–108, used instead of Ag85A 91–110 (GCQTYKWETFLTSELPQW; UniProt P9WQP1 131-148, looked up, fragment) | <5 pg/mL | 2,332 pg/mL | 2,377 pg/mL | 308 pg/mL | 748 pg/mL | <5 pg/mL
101–120: synthetic overlapping peptide of mature Ag85A, aa 101–120 (LTSELPGWLQANRHVKPTGS; UniProt P9WQP3 144-163, looked up, fragment) | 150 pg/mL | 1,646 pg/mL | 1,177 pg/mL | <5 pg/mL | 319 pg/mL | <5 pg/mL
111–130: synthetic overlapping peptide of mature Ag85A, aa 111–130 (ANRHVKPTGSAVVGLSMAAS; UniProt P9WQP3 154-173, looked up, fragment) | 15,124 pg/mL | 2,879 pg/mL | 1,415 pg/mL | 33 pg/mL | 961 pg/mL | <5 pg/mL
121–140: synthetic overlapping peptide of mature Ag85A, aa 121–140 (AVVGLSMAASSALTLAIYHP; UniProt P9WQP3 164-183, looked up, fragment) | 16,699 pg/mL | 2,367 pg/mL | 306 pg/mL | <5 pg/mL | 1,023 pg/mL | <5 pg/mL
141–160: synthetic overlapping peptide of mature Ag85A, aa 141–160 (QQFVYAGAMSGLLDPSQAMG; UniProt P9WQP3 184-203, looked up, fragment) | 9,718 pg/mL | 232 pg/mL | 1,330 pg/mL | 894 pg/mL | 3,006 pg/mL | 837 pg/mL
151–170: synthetic overlapping peptide of mature Ag85A, aa 151–170 (GLLDPSQAMGPTLIGLAMGD; UniProt P9WQP3 194-213, looked up, fragment) | 1,020 pg/mL | <5 pg/mL | 257 pg/mL | 71 pg/mL | 349 pg/mL | <5 pg/mL
161–180: synthetic overlapping peptide of mature Ag85A, aa 161–180 (PTLIGLAMGDAGGYKASDMW; UniProt P9WQP3 204-223, looked up, fragment) | 1,501 pg/mL | <5 pg/mL | 556 pg/mL | 37 pg/mL | 463 pg/mL | <5 pg/mL
171–190: synthetic overlapping peptide of mature Ag85A, aa 171–190 (AGGYKASDMWGPKEDPAWQR; UniProt P9WQP3 214-233, looked up, fragment) | 328 pg/mL | <5 pg/mL | 1,066 pg/mL | 22 pg/mL | 170 pg/mL | <5 pg/mL
181–200: synthetic overlapping peptide of mature Ag85A, aa 181–200 (GPKEDPAWQRNDPLLNVGKL; UniProt P9WQP3 224-243, looked up, fragment) | 33 pg/mL | <5 pg/mL | 8 pg/mL | 17 pg/mL | <5 pg/mL | <5 pg/mL
191–210: synthetic overlapping peptide of mature Ag85A, aa 191–210 (NDPLLNVGKLIANNTRVWVY; UniProt P9WQP3 234-253, looked up, fragment) | 266 pg/mL | <5 pg/mL | 156 pg/mL | 38 pg/mL | 560 pg/mL | <5 pg/mL
201–220: synthetic overlapping peptide of mature Ag85A, aa 201–220 (IANNTRVWVYCGNGKPSDLG; UniProt P9WQP3 244-263, looked up, fragment) | 21 pg/mL | <5 pg/mL | 1,315 pg/mL | <5 pg/mL | <5 pg/mL | 197 pg/mL
211–230: synthetic overlapping peptide of mature Ag85A, aa 211–230 (CGNGKPSDLGGNNLPAKFLE; UniProt P9WQP3 254-273, looked up, fragment) | 46 pg/mL | <5 pg/mL | 13 pg/mL | <5 pg/mL | <5 pg/mL | 218 pg/mL
221–240: synthetic overlapping peptide of mature Ag85A, aa 221–240 (GNNLPAKFLEGFVRTSNIKF; UniProt P9WQP3 264-283, looked up, fragment) | 470 pg/mL | 4,455 pg/mL | 1,075 pg/mL | <5 pg/mL | 303 pg/mL | 2,980 pg/mL
